From US20160151403A1, “SMALL MOLECULE MODULATORS OF P53 FAMILY SIGNALING” (The Trustees of the University of Pennsylvania, priority 2006, published 2016) come the findings set out here.

Entries after “also recorded” stand apart in the source; their conditions may differ.

For series [1], the system named is p53 protein expression in HCT116 cells. The experiment in a line: Western blot of p53 protein in parental HCT116 cells. The settings on record: FIG. 2A. The class given is cell-based, human. How it is done:
(§1) Cells were collected and protein concentration was quantified by the Bio-Rad protein assay prior to SDS-PAGE. Proteins were transferred to a PVDF membrane (Immobilon-P, Millipore Corporation, Bedford, Mass.) by a semi-dry transfer apparatus (Bio-Rad Laboratories, Hercules, Calif.). The membranes with transferred proteins were blotted with 10% W/V non-fat dry milk and then incubated with the primary antibody and subsequently secondary antibodies, which were labelled by horseradish peroxidase, or infrared dyes (IR). Signals were visualized by either ECL (Amersham Pharmacia Biotech, England, UK) and exposed to an X-ray film, or scanned by the Odyssey Infared Imaging System (LI-COR Biosciences, Lincoln, Nebr.). Anti-p53, DO-1, was from Santa Cruz biotechnology, Inc. (Santa Cruz, Calif.), anti-p73 (AB-1) and anti-p21 (AB-1) were obtained from Calbiochem (San Diego, Calif.). Anti-ser20 of p53 Cell were obtained from Signaling Technology (Danvers, Mass.) and anti-DR5 antibody was obtained from Cayman Chemical (Ann Arbor, Mich.).
(§2) The chemical library screening was directed at restoring “p53 responses” in p53-deficient cells. The small molecules identified by the cell-based screening procedure appeared to be able to restore p53 responses in p53-deficient colon tumors and to eliminate viable cells. Their function was further tested on wild-type p53-expressing and p53-knockout HCT116 colon adenocarcinoma cell lines. A number of candidate modulators of signaling by the p53 family appeared to induce expression of p53 target genes such as p21 or DR5(13) either with or without stabilizing p53 protein in HCT116 cells (FIG. 2A).
For orientation: Immunoblotting shows a protein as a band on a membrane.

Series [2] concerns DR5 and p21 in HCT116/p53(+/+) cells. The experiment in a line: Western blot of p53 target genes DR5 and p21 in HCT116/p53(+/+) cells. Type of series: cell-based, human. The settings on record: for expression of p53 targets DR5 and p21 proteins: parental HCT116 (p53+/+) cells, FIG. 2A. How it is done: (§3) FIGS. 2A-2B show protein levels of p53 target genes p21 and DR5 were induced by selected compounds in HCT/p53(+/+) cells (A) or HCT/p53(−/−) cells (B). In A, doses of compounds (μM) are listed above each lane. Cells treated with compounds were harvested and lysed for SDS-PAGE and immunoblotted with p21 or DR5 antibodies. Ran was used as a protein loading control. Doses of compounds in B were as follows: 2 μM for #15, 12 μM for #1 and #23, 20 μM for #20 and #32, 100 μM for #33, 200 μM for #5, #8, #12, #16, #17, and #22, and 400 μM for #3. The dose for adriamycin was 0.2 μg/ml. Cells were incubated for 16 hours at 37° C. with the various drugs prior to cell harvest;
as §1, §2

The subject of series [3] is DR5 and p21 in HCT116/p53(−/−) cells. The experiment in a line: Western blot of p53 target genes DR5 and p21 in HCT116/p53(-/-) cells. Type of series: cell-based, human. The settings on record: for DR5 and p21 expression (p53 target genes): p53-null HCT116 cells, 16 hours, doses per compound in FIG. 2B. How it is done: as §3, §1
A number of selected compounds was further tested on HCT116/p53^−/− cells to verify the possibility of induction of p53 target gene expression in the absence of p53. […] The importance of this observation is in establishing that it is possible to identify small molecules with the potential to induce p53 target gene expression in p53-deficient cells.

The test system of series [4] is p73 in HCT116/p53(−/−) cells. The experiment in a line: Western blot of p73 protein in HCT116/p53(-/-) cells. The class given is cell-based, human. The settings on record: FIG. 3F. How it is done: (§4) FIGS. 3A-3F show: Structures (A) of isolated compounds and summary of their effects on the p53 family and transcriptional targets (B). Cell cycle profiles of HCT/p53(+/+) and HCT/p53(−/−) in response to treatment by selected compounds (C-E). The dose of #17 was 200 μM and for #23 it was 10 μM. F, p73 protein levels were elevated in HCT116/p53(−/−) cells in response to treatment by selected compounds at various concentrations as indicated;
as §1
The questioned whether the p53 family member p73 is involved in the p53-responsive transcriptional activity induced by the compounds identified was then tested. p63, the other p53 family member, was not tested, because the TA form of p63 is rarely expressed in malignant and normal tissues except for germ cells of the ovary and testis.

For series [5], the system named is HCT116/p53(+/+)/PG-13 cells. The experiment in a line: p53 transcriptional activity, PG13 reporter, HCT116/p53(+/+)/PG-13 cells. The settings on record: 16 h, bioluminescence. Type of series: cell-based, human. How it is done:
(§5) Cells were treated by the indicated compounds at progressive 1:2 serial dilutions for 16 h, and the luciferase activities were detected by bioluminescence imaging. Fold induction was calculated by comparing to the nontreated cells;

Series [6] deals with HCT116/p53(−/−)/PG13 cells. The experiment in a line: p53 transcriptional activity, PG13 reporter, HCT116/p53(-/-)/PG13 cells. Type of series: cell-based, human. The conditions noted are these: p53-null HCT116, 16 h, bioluminescence. How it is done:
as §5

The subject of the next series is HCT116/p53^+/+ cells. The experiment in a line: Flow cytometry cell cycle profile, HCT116/p53(+/+). Type of series: cell-based, human. The settings on record: #17 200 μM, #23 10 μM. How it is done:
as §4
(§6) Adherent cells in a 6-well plate were trypsinized and collected in 15 ml centrifuge tubes to which were added the originally floating cells. The collected cells were ethanol-fixed and stained with propidium iodide (Sigma, St. Louis, Mo.). The DNA content of the stained cells was then measured using an Epics Elite flow cytometer (Beckman-Coulter, Fullerton, Calif.).
(§7) The ability of selected compounds from the chemical library screen to induce apoptosis of human colon tumor cells and the dependence of their effects on endogenous p53 status was further evaluated.

A further series has as its system HCT116/p53^−/− cells. The experiment in a line: Flow cytometry cell cycle profile, HCT116/p53(-/-). The class given is cell-based, human. How it is done:
as §4, §6, §7
On the technique in general: A flow cytometer gives signals particle by particle.

The next series relates to γH2AX. The experiment in a line: γH2AX test (DNA damage signaling). The conditions noted are these: after treatment. The class given is cell-based.
In series [7] the test system is HCT116/p53(−/−) xenografts. The experiment in a line: In vivo anti-tumor assay, HCT116/p53(-/-) xenografts in Balb/c nude mice. The conditions noted are these: doses just below the MTD. How it is done:
Balb/c nude mice were inoculated subcutaneously with 2 million HCT116/p53(−/−) cells in Matrigel on each flank. 6 mice were used in each group, in each of the two experiments. When the tumor mass reached about 3-5 mm, mice were treated with the compounds alone or following a single dose of TRAIL at 100 μg/mouse in experiment 1. At 7 days after treatment, mice were sacrificed and the tumor masses were weighted. The doses used were 100 mg/kg for #1, 50 mg/kg for #14, and 10 mg/kg for #23;
Balb/c nude mice (Charles River Laboratories, Wilmington, Mass.) were inoculated subcutaneously with 2 million HCT116/p53(−/−) cells in an equal volume of Matrigel. When tumor masses reached about 3-5 mm in diameter, mice were treated with the compounds alone by intraperitoneal injection or following a single intravenous dose of TRAIL at 100 μg/mouse. At 7 days after treatment, mice were sacrificed and the tumor masses were weighed. DLD1/PG13 cells were inoculated subcutaneously with 5 million cells. At 24 hours later mice were treated with selected compounds, and subsequently bioluminescence imaging was carried out after 16 hours as previously described [Wang, W. & El-Deiry, W. S. (2003) Cancer Biol Ther 2, 196-202].
(§8) Compounds #1, #14, #17, and #23 were tested in colon-tumor xenograft-bearing mice in order to evaluate their toxicities and potential anti-tumor effects (FIG. 4). […] The initial doses were chosen below maximal tolerated doses based on the NCI DTP toxicology databases for chemical compound testing in vivo so that mice would survive drug administration and allow subsequent evaluation of anti-tumor effects. p53-null HCT116 xenografts were first tested to document anti-tumor effects in p53-deficient tumors and an experiment to simulate therapy of established tumors was designed. A total of 2×10^6 p53-null HCT116 cells were implanted on opposite flanks subcutaneously in each of 6 nude mice in each group. When tumor masses grew to about 3-5 mm in diameter, drugs were administered intra-peritoneally (#1: 100 mg/kg; #14: 50 mg/kg; #23: 10 mg/kg), and on the next day additional groups received intravenous TRAIL (15) (100 μg/mice via the tail vein). Tumor weights were determined at 7 days later. […] Nonetheless in the future it may be possible to modify the structure of #17 or identify doses where synergistic interactions with TRAIL may be observed.

The nature of series [8]: Toxicity in xenograft-bearing mice. The conditions noted are these: at higher doses (above MTD). The class given is in vivo. How it is done: as §8

Turning to `Cc1ccc(CCCC(=O)O)cc1C` [#3], the p53 protein expression result in series [1] is “slight or no significant effect”. Moreover, the “expression of p53 targets DR5 and p21 proteins” value in series [2] was “increase p53 target gene expression”.
On the same counts, the results for `O=C(O)/C=C\C(=O)Nc1ccc2c(c1)-c1ccccc1C2` [#5] are “slight or no significant effect” and “increase p53 target gene expression”.
With `O=C(O)CCC(=O)c1ccc2sc3ccccc3c2c1` [#8], the “DR5 and p21 expression (p53 target genes)” value (“DR5 and p21 expression” for short) in [3] was “increase DR5 and p21 expression”. Further, the p73 protein expression entry in series [4] is “induce p73 protein expression”.
Take `COC1=C(C)C(=O)c2c(c(COC(N)=O)c3n2CC2C3N2C)C1=O` (stereo not shown) [#11]: the p53 protein expression result in [1] is listed as “increased p53 expression”. The “expression of p53 targets DR5 and p21 proteins” value in series [2] is “more modest”.
As for `O=C(O)c1ccccc1-c1ccccc1C(=O)Nc1ccc2c(c1)[nH]c(=O)c1ccccc12` [#12], the p53 protein expression result in series [1] is reported as “slight or no significant effect”. The “expression of p53 targets DR5 and p21 proteins” value in [2] is listed as “increase p53 target gene expression”. For the same molecule, in series [4], the p73 protein expression entry is “induce p73 protein expression”.
On to `Cc1c2ccccc2c(CSC(=N)N)c2ccccc12.Cl` [#15], for which the p53 protein expression result in series [1] is listed as “increased p53 expression; also recorded: significantly increased p53 protein levels”. Besides, in [2], the “expression of p53 targets DR5 and p21 proteins” value was “more modest”.
For `CC(C)=CCNc1ncnc2c1c(C#N)cn2C1OC(CO)C(O)C1O` (stereo not shown) [#16], in [1], the p53 protein expression entry is on record as “slight or no significant effect”. Also, the “expression of p53 targets DR5 and p21 proteins” value in series [2] was “increase p53 target gene expression”. For the same molecule, the p73 protein expression entry in series [4] was “induce p73 protein expression”.
With `CN(C)CCCn1c2ccccc2c2cnccc21` [#17], the p53 protein expression result in series [1] is on record as “slight or no significant effect; also recorded: modestly induced p53 levels”. The DR5 levels result in [2] (HCT116/p53^+/+ cells) is “highest”. Moreover, the “expression of p53 targets DR5 and p21 proteins” value in [2] is reported as “increase p53 target gene expression”. In addition, the DR5 expression result in [3] (HCT116/p53^−/− cells) is listed as “highest”. The “DR5 and p21 expression” value in series [3] is “increasing expression of the p53 target genes DR5 and p21; also recorded: strongly induce p53 target gene expression”. Also, the p53 transcriptional activity entry in series [5] is “highest”. The “p53 transcriptional activity (reporter assay response)” value in series [6] was “highest; also recorded: stronger responses in the reporter assays”. Besides, the “sub-G1 peak (apoptosis)” value with HCT116/p53^+/+ cells is on record as “induced a sub-G1 peak characteristic of apoptosis”; in the series on HCT116/p53^−/− cells (HCT116/p53^−/−, #17 200 μM, #23 10 μM), “induced a sub-G1 peak characteristic of apoptosis”. Also, the “S-phase population on apoptosis induction” value with HCT116/p53^−/− cells (p53-null HCT116 cells, compared with wild-type p53-expressing HCT116) is given as “without suppressing the S-phase population”. The p73 protein expression result in [4] was “did not increase p73 expression”. For the same molecule, the γH2AX entry in the series on γH2AX is “not”. Also, the “anti-tumor effect on established xenograft” value in series [7] is “no apparent in vivo anti-tumor effect”. In addition, in [8], the toxicity to mice result is “toxic to mice”.
As for `O=c1[nH]c(SCc2ccccc2[N+](=O)[O-])nc2nc[nH]c12` [#22], the “DR5 and p21 expression” value in series [3] is “increase DR5 and p21 expression”.
The same measure, in the same setting: the entry for `C[C@]12CC[C@H](O)C[C@H]1CC[C@@H]1[C@@H]2CC[C@]2(C)[C@@H](C3=CC(=O)OC3)[C@@H](O)C[C@]12O` [#32] is “increase DR5 and p21 expression”.
As for `CC[C@@]1(O)C(=O)OCc2c1cc1n(c2=O)Cc2cc3c(NC(=O)CN)cccc3nc2-1.Cl` [#33], in series [1], the p53 protein expression result is reported as “increase p53 expression; also recorded: significantly increased p53 protein levels”. Also, the “expression of p53 targets DR5 and p21 proteins” value in [2] is “increased expression of DR5 and p21 proteins”.
Consider `COc1cccc2c1C(=O)c1c(O)c3c(c(O)c1C2=O)C[C@@](O)(C(=O)CO)C[C@@H]3O[C@H]1C[C@H](N)[C@H](O)[C@H](C)O1` [adriamycin, doxorubicin, reference compound], for which, in series [3] (HCT116/p53^−/− cells), the DR5 expression entry is listed as “no obvious effect” and the p21 expression result is recorded as “little effect”. In addition, the p73 protein expression entry in series [4] is recorded as “only increased p73 slightly”.
